Assay results from patent publication US4575487A, “Method for determination of transglucosidase” (Miles Laboratories, Inc., priority 1983, dated 1986).

Key:
glucoamylase = glucoamylase (Aspergillus niger, UniProt P69328); assay: Effect of acarbose on glucoamylase activity (remaining activity with maltose); type: biochemical; conditions: for Inhibition (%) glucoamylase: one unit of glucoamylase
Text: (§1) A particularly effective, selective inhibitor is acarbose which is identified by J. Jap. Soc. […] The difference in the effect of acarbose on glucoamylase and transglucosidase has led to the development of a sensitive assay for transglucosidase in the presence of glucoamylase. To determine the level of acarbose needed to inhibit glucoamylase completely, purified glucoamylase equivalent to one DU (the amount that liberates one gram of reducing sugar per hour under the conditions of the assay published in U.S. Pat. No. 3,249,514) is treated with graded amounts of acarbose and the remaining activity measured by incubation with maltose under appropriate conditions, for example, at pH 4.2 and 37° C. with a maltose concentration of 10%. The extent of inhibition of glucoamylase activity is increased with increasing concentrations of acarbose up to 50 μg acarbose per DU enzyme and above, such concentrations causing 100% inhibition. In order to determine the effect of acarbose on TG activity, glucoamylase (one DU) containing TG (40 TG units, vide infra) was treated with different concentrations of acarbose and then incubated with maltose (10%), at pH 4.8, and 37° C. for one hour. The enzyme reaction was then terminated by heating the reaction mixture in a boiling water bath for 15 minutes and transglucosidase activity was determined by measuring, using liquid chromatography, the amount of panose produced during the reaction period. […] In these experiments, panose was routinely measured by a high pressure liquid chromatography procedure which separated this compound from glucose and maltose. Alternative procedures for specific determination of panose can be used equally well.
(§2) It is recognized that the inhibition of glucoamylase or acarbose and the measurement of transglucosidase activity may equally well be conducted under different conditions. In order to work at such alternative conditions, it is necessary to determine the effect of a range of acarbose concentrations under the conditions selected, and in this way to identify a level of acarbose sufficient to give complete inhibition of glucoamylase without inhibiting transglucosidase activity.
^a one unit of glucoamylase was present in the reaction mixture.

transglucosidase = transglucosidase (Aspergillus niger, UniProt P56526); assay: Effect of acarbose on transglucosidase activity (panose produced from maltose, in presence of glucoamylase); type: biochemical; conditions: for amount of panose produced: maltose 10%, pH 4.8, 37° C., one hour; for Inhibition (%) transglucosidase: 40 units of transglucosidase
transglucosidase, sequence (P56526 26-266): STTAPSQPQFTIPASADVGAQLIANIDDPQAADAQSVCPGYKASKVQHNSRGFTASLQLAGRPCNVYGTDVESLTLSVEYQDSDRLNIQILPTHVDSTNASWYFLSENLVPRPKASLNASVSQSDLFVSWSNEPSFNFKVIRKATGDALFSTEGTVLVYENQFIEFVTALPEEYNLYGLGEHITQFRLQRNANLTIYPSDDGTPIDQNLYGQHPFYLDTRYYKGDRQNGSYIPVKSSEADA
transglucosidase, sequence (P56526 267-985): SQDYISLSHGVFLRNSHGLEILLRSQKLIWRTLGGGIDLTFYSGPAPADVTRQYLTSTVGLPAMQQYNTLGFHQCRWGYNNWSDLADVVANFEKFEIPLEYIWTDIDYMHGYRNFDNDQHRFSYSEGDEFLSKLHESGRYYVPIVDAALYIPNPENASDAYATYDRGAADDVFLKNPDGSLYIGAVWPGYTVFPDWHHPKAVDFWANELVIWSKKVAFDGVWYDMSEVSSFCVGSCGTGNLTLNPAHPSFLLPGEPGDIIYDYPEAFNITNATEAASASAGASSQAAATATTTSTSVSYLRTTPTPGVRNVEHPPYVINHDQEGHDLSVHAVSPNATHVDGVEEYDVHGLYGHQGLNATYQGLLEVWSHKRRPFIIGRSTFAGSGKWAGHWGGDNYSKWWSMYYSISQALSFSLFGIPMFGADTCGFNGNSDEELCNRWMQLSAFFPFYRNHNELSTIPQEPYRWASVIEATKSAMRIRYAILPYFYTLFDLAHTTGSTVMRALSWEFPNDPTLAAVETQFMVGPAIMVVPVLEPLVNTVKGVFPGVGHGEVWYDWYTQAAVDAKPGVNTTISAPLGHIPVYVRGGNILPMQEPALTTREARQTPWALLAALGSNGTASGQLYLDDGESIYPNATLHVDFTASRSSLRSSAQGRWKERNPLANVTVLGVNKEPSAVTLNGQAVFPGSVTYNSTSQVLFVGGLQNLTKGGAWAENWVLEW
Text: as §1, §2
^b 40 units of transglucosidase were present in the reaction mixture.

amylolytic enzymes = conditions: J. Jap. Soc. Starch Sci., 27, 114-119 (1980); cited from earlier work
[1] = acarbose 1.25 μg/DU glucoamylase
[2] = acarbose 2.5 μg/DU glucoamylase
[3] = acarbose 100 μg/DU glucoamylase
[4] = acarbose 200 μg/DU glucoamylase
[5] = acarbose 300 μg/DU glucoamylase
[6] = acarbose 400 μg/DU glucoamylase
[7] = acarbose 500 μg/DU glucoamylase
[8] = acarbose 600 μg/DU glucoamylase
[9] = acarbose 800 μg/DU glucoamylase
[10] = acarbose 1000 μg/DU glucoamylase
[11] = acarbose 2000 μg/DU glucoamylase

glucoamylase, sequence (P69328 25-640): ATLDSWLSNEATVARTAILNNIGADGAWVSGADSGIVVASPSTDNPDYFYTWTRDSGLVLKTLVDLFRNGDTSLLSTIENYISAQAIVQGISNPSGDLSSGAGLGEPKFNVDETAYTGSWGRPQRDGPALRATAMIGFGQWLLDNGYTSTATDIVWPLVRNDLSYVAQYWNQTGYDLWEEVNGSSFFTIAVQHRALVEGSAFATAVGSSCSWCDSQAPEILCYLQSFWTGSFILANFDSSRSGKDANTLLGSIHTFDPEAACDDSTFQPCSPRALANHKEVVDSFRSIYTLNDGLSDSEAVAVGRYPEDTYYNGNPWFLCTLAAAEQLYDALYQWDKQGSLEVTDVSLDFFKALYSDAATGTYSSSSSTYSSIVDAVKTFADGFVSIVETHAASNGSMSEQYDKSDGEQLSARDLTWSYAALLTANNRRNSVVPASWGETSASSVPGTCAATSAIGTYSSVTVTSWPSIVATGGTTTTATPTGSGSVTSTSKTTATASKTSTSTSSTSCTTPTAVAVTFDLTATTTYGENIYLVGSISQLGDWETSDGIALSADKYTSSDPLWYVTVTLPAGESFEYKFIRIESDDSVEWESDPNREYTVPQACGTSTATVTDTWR

For C[C@H]1O[C@H](O[C@H]2[C@H](O)[C@@H](O)[C@@H](O[C@H]3[C@H](O)[C@@H](O)C(O)O[C@@H]3CO)O[C@@H]2CO)[C@H](O)[C@@H](O)[C@@H]1N[C@H]1C=C(CO)[C@@H](O)[C@H](O)[C@H]1O (stereo partly shown) [acarbose], the “inhibition of glucoamylase activity” value (glucoamylase; 50 μg acarbose per DU enzyme and above, maltose 10%, pH 4.2, 37° C.) was 100%, the “Inhibition (%) glucoamylase” value (glucoamylase; [1]) was 23% and the “Inhibition (%) glucoamylase” value (glucoamylase; [2]) was 36%. The “Inhibition (%) glucoamylase” value (glucoamylase; acarbose 5 μg/DU glucoamylase) was 65%, the “Inhibition (%) glucoamylase” value (glucoamylase; acarbose 10 μg/DU glucoamylase) was 86% and the “Inhibition (%) glucoamylase” value (glucoamylase; acarbose 15 μg/DU glucoamylase) was 91%. For the same compound, the “Inhibition (%) glucoamylase” value (glucoamylase; acarbose 20 μg/DU glucoamylase) was 95%, the “Inhibition (%) glucoamylase” value (glucoamylase; acarbose 30 μg/DU glucoamylase) was 97% and the “Inhibition (%) glucoamylase” value (glucoamylase; acarbose 40 μg/DU glucoamylase) was 98%. For the same compound, the “Inhibition (%) glucoamylase” value (glucoamylase; acarbose 50 μg/DU glucoamylase) was 100%, the “Inhibition (%) glucoamylase” value (glucoamylase; [3]) was 100% and the “Inhibition (%) glucoamylase” value (glucoamylase; [4]) was 100%. For the same compound, the “Inhibition (%) glucoamylase” value (glucoamylase; [5]) was 100%, the “Inhibition (%) glucoamylase” value (glucoamylase; [6]) was 100% and the “Inhibition (%) glucoamylase” value (glucoamylase; [7]) was 100%. For the same compound, the “Inhibition (%) glucoamylase” value (glucoamylase; [8]) was 100%, the “Inhibition (%) glucoamylase” value (glucoamylase; [9]) was 100% and the “Inhibition (%) glucoamylase” value (glucoamylase; [10]) was 100%. The “Inhibition (%) glucoamylase” value (glucoamylase; [11]) was 100%, the “inhibition of glucoamylase activity” value (glucoamylase; acarbose 50-500 μg/DU) was “completely inhibited” and the “amount of panose produced” value (transglucosidase; above 50 up to 500 μg acarbose per DU of glucoamylase) was “remained constant”. For the same compound, the “Inhibition (%) transglucosidase” value (transglucosidase; [1]) was 0%, the “Inhibition (%) transglucosidase” value (transglucosidase; [2]) was 0% and the “Inhibition (%) transglucosidase” value (transglucosidase; acarbose 5 μg/DU glucoamylase) was 0%. For the same compound, the “Inhibition (%) transglucosidase” value (transglucosidase; acarbose 10 μg/DU glucoamylase) was 0%, the “Inhibition (%) transglucosidase” value (transglucosidase; acarbose 15 μg/DU glucoamylase) was 0% and the “Inhibition (%) transglucosidase” value (transglucosidase; acarbose 20 μg/DU glucoamylase) was 0%. The “Inhibition (%) transglucosidase” value (transglucosidase; acarbose 30 μg/DU glucoamylase) was 0%, the “Inhibition (%) transglucosidase” value (transglucosidase; acarbose 40 μg/DU glucoamylase) was 0% and the “Inhibition (%) transglucosidase” value (transglucosidase; acarbose 50 μg/DU glucoamylase) was 0%. For the same compound, the “Inhibition (%) transglucosidase” value (transglucosidase; [3]) was 0%, the “Inhibition (%) transglucosidase” value (transglucosidase; [4]) was 0% and the “Inhibition (%) transglucosidase” value (transglucosidase; [5]) was 0%. The “Inhibition (%) transglucosidase” value (transglucosidase; [6]) was 0%, the “Inhibition (%) transglucosidase” value (transglucosidase; [7]) was 0% and the “Inhibition (%) transglucosidase” value (transglucosidase; [8]) was 6%. The “Inhibition (%) transglucosidase” value (transglucosidase; [9]) was 8%, the “Inhibition (%) transglucosidase” value (transglucosidase; [10]) was 12% and the “Inhibition (%) transglucosidase” value (transglucosidase; [11]) was 23%. The “inhibition of transglucosidase activity” value (transglucosidase; acarbose 50-500 μg/DU) was “without there being any inhibition of transglucosidase activity”, the “amount of panose produced” value (transglucosidase; acarbose exceeding 500 μg/DU glucoamylase) was “steady decrease in the amount of panose produced, indicating inhibition of TG” and the “amount of panose produced” value (transglucosidase; up to 50 μg acarbose per DU of glucoamylase) was “increased with increasing levels of acarbose”. For the same compound, the “inhibition of amylolytic enzymes” value (amylolytic enzymes) was “inhibitor of amylolytic enzymes”.
